Source: the NIST ThermoML archive (doi:10.1021/je900337a)

Assays:
[1] = 323.15 K; for mass density / viscosity: 101.33 kPa, Liquid; for viscosity: Capillary tube (Ostwald / Ubbelohde) method
[2] = xn = mol fraction of the nth substance listed; conditions: 323.15 K; for viscosity / mass density: 101 kPa; for viscosity: Capillary tube (Ostwald / Ubbelohde) method

CCCCOC(C)=O [butyl ethanoate]
Conditions	surface tension liquid-gas [mN/m]
[1], Ring tensiometer	22.12

[1]
Conditions	mass density [kg/m3]	viscosity [mPa·s]
–	849.75	0.502

CCCCOC(C)=O [butyl ethanoate] + CCCO
[2], Liquid
Conditions	mass density [kg/m3]	viscosity [mPa·s]
x1 = 0.1	790.07	0.879
x1 = 0.2	799.51	0.747
x1 = 0.3	807.87	0.662
x1 = 0.4	815.42	0.604
x1 = 0.5	822.21	0.566
x1 = 0.6	828.46	0.538
x1 = 0.7	834.3	0.521
x1 = 0.8	839.71	0.508
x1 = 0.9	844.84	0.502

[2], Liquid, Ring tensiometer
Conditions	surface tension liquid-gas [mN/m]
x1 = 0.1	21.56
x1 = 0.2	21.72
x1 = 0.3	21.84
x1 = 0.4	21.97
x1 = 0.5	22.05
x1 = 0.6	22.12
x1 = 0.7	22.17
x1 = 0.8	22.2
x1 = 0.9	22.18

CCCCOC(C)=O [butyl ethanoate] + O
[2]
Conditions	interfacial tension [mN/m]	mass density [kg/m3]	surface tension liquid-gas [mN/m]	viscosity [mPa·s]
Liquid mixture 1, Ring tensiometer, x2 = 0.9998	14.2	–	–	–
Liquid mixture 2, Ring tensiometer, x2 = 0.1305	–	–	21.74	–
Liquid, x2 = 0.02	–	850.18	–	0.503
Liquid, x2 = 0.04	–	850.62	–	0.504
Liquid, x2 = 0.06	–	851.07	–	0.506
Liquid, x2 = 0.08	–	851.57	–	0.507

[2], Liquid, Ring tensiometer
Conditions	surface tension liquid-gas [mN/m]
x2 = 0.02	22.14
x2 = 0.04	22.17
x2 = 0.06	22.2
x2 = 0.08	22.25

CCCO [propan-1-ol]
Conditions	surface tension liquid-gas [mN/m]
[1], Ring tensiometer	21.36

[1]
Conditions	mass density [kg/m3]	viscosity [mPa·s]
–	779.3	1.115

CCCO [propan-1-ol] + O
[2], Liquid
Conditions	mass density [kg/m3]	viscosity [mPa·s]
x2 = 0.05	782.94	1.121
x2 = 0.1	786.61	1.127
x2 = 0.2	794.62	1.15
x2 = 0.3	803.64	1.18
x2 = 0.4	814.4	1.219
x2 = 0.5	827.68	1.26
x2 = 0.6	844.41	1.291
x2 = 0.7	865.87	1.305
x2 = 0.8	894.61	1.256
x2 = 0.9	935.04	1.036
x2 = 0.95	959.71	0.827

[2], Liquid, Ring tensiometer
Conditions	surface tension liquid-gas [mN/m]
x2 = 0.05	21.55
x2 = 0.1	21.68
x2 = 0.2	21.93
x2 = 0.3	22.29
x2 = 0.4	22.68
x2 = 0.5	23.06
x2 = 0.6	23.42
x2 = 0.7	23.65
x2 = 0.8	24.12
x2 = 0.9	25.27
x2 = 0.92	26.37
x2 = 0.95	29.58
x2 = 0.98	44.44

O [water]
Conditions	surface tension liquid-gas [mN/m]
[1], ring detachment method	68.38
